Measurements: patent publication US5254579A, “N-(5-thioxo-L-prolyl)-L-cysteine, derivatives thereof, processes for the preparation thereof and pharmaceutical compositions containing them” (Poli Industria Chimica S.p.A., priority 1991, dated 1993)
Where a SMILES comes first, the peptide text is derived from it. [ ]: non-standard residue; d: D form. pGlu = O=C1CC[C@@H](C(=O)O)N1

What was measured:
[1] = tested on: paracetamol acute toxicity; assay: In vivo antioxidant activity (paracetamol test); design: species or system Male Crl: CD-1 (ICR) BR mice; settings: 100 mg/kg os 30 minutes before and 5 hours after paracetamol 1000 mg/kg i.p., 6 days; for Mortality (%): controls 90%
Description: The in vivo antioxidant (radical scavenger) activity was evidenced by means of the protection test against paracetamol acute toxicity. Male Crl: CD-1 (ICR) BR mice, weighing 25-30 g, were treated intraperitoneally with 1000 mg/kg (1 ml/kg) of paracetamol dissolved in 20% DMF in water immediately before the administration.
In vivo antioxidant activity (paracetamol test)

[2] = tested on: elimination of phenol red from the respiratory fluid; assay: Mucosecretolytic activity (phenol red test in the mouse); type: in vivo; settings: 100 mg/kg os; for Mean secretion (total μg) (mean ± S.E.): controls 2.73 ± 0.18, **p <0.01 Dunnett's "t" test
[3] = In vitro antioxidant activity (DPPH test); type: biochemical
Source text: The antioxidant (radical-scavenger) activity was studied by means of the DPPH in vitro test and with the paracetamol in vivo test.

[4] = known from EP-A-332,946; in words; cited from earlier work

| Structure (SMILES) | Mortality, Variat. vs controls (%) [1] [%] | Mortality (%) [1] [%] | Variat. (%) of mean secretion vs controls [2] | Mean secretion (total μg) (mean ± S.E.) [2] [µg] | Variat. (%) of absorbancies ([3]; 5.10^-5 M, 50 µM) [%] | Variat. (%) of absorbancies ([3]; 10^-4 M, 100 µM) [%] | Variat. (%) of absorbancies ([3]; 10^-5 M, 10 µM) [%] | anticataractogenic activity [4] |
| --- | --- | --- | --- | --- | --- | --- | --- | --- |
| COC(=O)[C@H](CS)NC(=O)[C@@H]1CCC(=O)N1 [Ic, N-(5-oxo-L-prolyl)-L-cysteine methyl ester] ([pGlu]-Cys-OMe) | 45.4 | 50 | +143.2% | 6.64 ± 1.00 | -49.1 | -82.7 | -10.4 |  |
| COC(=O)[C@H](CS)NC(=O)[C@@H]1CCC(=S)N1 [Id, N-(5-thioxo-L-prolyl)-L-cysteine methyl ester] | 45.4 | 50 | +97.4% | 5.39 ± 0.59 | -51.8 | -79.1 | -14.3 |  |
| O=C(O)[C@H](CS)NC(=O)[C@@H]1CCC(=S)N1 [Ie, N-(5-thioxo-L-prolyl)-L-cysteine] | 66.7 | 30 | +112.8% | 5.81 ± 0.62 | -51.8 | -83.1 | -14.3 |  |
| O=C1O[C@H]([C@@H](O)CO)C(O)=C1O [L-ascorbic acid] |  |  |  |  | -49.5 | -86.0 | -17.6 |  |
| N[C@@H](CS)C(=O)O [L-cysteine] |  |  |  |  | -56.5 | -83.7 | -10.9 |  |
| O=C1CC[C@@H](C(=O)N[C@@H](CS)C(=O)O)N1 [N-(5-oxo-L-prolyl)-L-cysteine] ([pGlu]-Cys-OH) | 66.7 | 30 | +92.7% | 5.26 ± 0.25 | -49.6 | -88.1 | -29.6 | known to have anticataractogenic activity |
| CC(=O)N[C@@H](CS)C(=O)O [N-acetyl-L-cysteine] | 45.4 | 50 | +61.9% | 4.42 ± 0.83 | -47.9 | -86.3 | -10.4 |  |
